US20240228506A1, “RIPK1 INHIBITORS AND METHODS OF USE” (Merck Sharp & Dohme LLC, priority 2021, published 2024)

Each molecule was assayed against T1, GST-RIPK1 (recombinant GST-RIPK1 kinase domain (residues 1-327)) (Homo sapiens, UniProt Q13546) (assay: RIPK1-ADP-Glo enzymatic assay). Conditions: 25 nM GST-RIPK1, 300 μM ATP, 3 μM dephosphorylated-MBP; 30 minutes pre-incubation, 150 minutes reaction; ten-point titration.
T1 construct: recombinant GST-RIPK1 kinase domain (residues 1-327) enzyme; made in house; host or cells: baculovirus-transfected Sf21 insect cells
T1 sequence (Q13546 1-327): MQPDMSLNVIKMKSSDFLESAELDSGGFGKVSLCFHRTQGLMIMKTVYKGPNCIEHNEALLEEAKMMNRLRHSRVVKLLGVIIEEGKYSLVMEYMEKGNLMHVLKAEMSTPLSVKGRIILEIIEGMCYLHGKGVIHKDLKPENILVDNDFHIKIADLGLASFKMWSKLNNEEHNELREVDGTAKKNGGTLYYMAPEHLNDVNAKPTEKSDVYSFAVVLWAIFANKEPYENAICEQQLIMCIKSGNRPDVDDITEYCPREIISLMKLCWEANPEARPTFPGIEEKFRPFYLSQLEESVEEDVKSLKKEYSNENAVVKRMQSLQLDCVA
Format: biochemical
How it was run: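 Ten-point 1:3 titrations from 100000 nM, 1% DMSO, were preincubated 30 min with 25 nM GST-RIPK1 (1-327) before starting with 300 μM ATP plus 3 μM dephosphorylated MBP; 150 min reaction. ADP-Glo luminescence measured ATP-to-ADP conversion; EC50 by four-parameter sigmoidal regression.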
`COc1ncc(C#Cc2cncc3c2O[C@H]2C[C@@H]3N(C(=O)C(C)(C)C(F)F)C2)c(OC)n1` [Compound 2-94, 1-((2S,5S)-9-((2,4-dimethoxypyrimidin-5-yl)ethynyl)-2,3-dihydro-2,5-methanopyrido[3,4-f][1,4]oxazepin-4(5H)-yl)-3,3-difluoro-2,2-dimethylpropan-1-one] was tested, and the IC50 was 0.049 µM. For `Cc1ncc(C#Cc2cncc3c2O[C@H]2C[C@@H]3N(C(=O)C(C)(C)C(F)F)C2)c(C)n1` [Compound 2-95, 1-((2S,5S)-9-((2,4-dimethylpyrimidin-5-yl)ethynyl)-2,3-dihydro-2,5-methanopyrido[3,4-f][1,4]oxazepin-4(5H)-yl)-3,3-difluoro-2,2-dimethylpropan-1-one], the IC50 was 0.036 µM. Molecule `O=C(N1C[C@@H]2C[C@H]1c1cncc(C#Cc3cncc(F)c3)c1O2)C12CCC(C(F)(F)F)(CC1)C2` [Compound 2-96, ((2S,5S)-9-((5-Fluoropyridin-3-yl)ethynyl)-2,3-dihydro-2,5-methanopyrido[3,4-f][1,4]oxazepin-4(5H)-yl)(4-(trifluoromethyl)bicyclo[2.2.1]heptan-1-yl)methanone] has an IC50 of 0.048 µM. `O=C(N1C[C@@H]2C[C@H]1c1cncc(C#Cc3ccccc3)c1O2)C12CCC(F)(CC1)C2` [Compound 2-97, (4-Fluorobicyclo[2.2.1]heptan-1-yl)((2S,5S)-9-(phenylethynyl)-2,3-dihydro-2,5-methanopyrido[3,4-f][1,4]oxazepin-4(5H)-yl)methanone] gave an IC50 of 0.018 µM. For `COc1cccc(C#Cc2cncc3c2O[C@H]2C[C@@H]3N(C(=O)C34CCC(F)(CC3)C4)C2)c1` [Compound 2-98, (4-fluorobicyclo[2.2.1]heptan-1-yl)((2S,5S)-9-((3-methoxyphenyl)ethynyl)-2,3-dihydro-2,5-methanopyrido[3,4-f][1,4]oxazepin-4(5H)-yl)methanone], the IC50 was 0.013 µM. `N#CCc1cccc(C#Cc2cncc3c2O[C@H]2C[C@@H]3N(C(=O)C34CCC(F)(CC3)C4)C2)c1` [Compound 2-99, 2-(3-(((2S,5S)-4-(4-fluorobicyclo[2.2.1]heptane-1-carbonyl)-2,3,4,5-tetrahydro-2,5-methanopyrido[3,4-f][1,4]oxazepin-9-yl)ethynyl)phenyl) acetonitrile] gave an IC50 of 0.01 µM. `N#Cc1cccc(C#Cc2cncc3c2O[C@H]2C[C@@H]3N(C(=O)C34CCC(F)(CC3)C4)C2)c1` [Compound 2-100, 3-(((2S,5S)-4-(4-fluorobicyclo[2.2.1]heptane-1-carbonyl)-2,3,4,5-tetrahydro-2,5-methanopyrido[3,4-f][1,4]oxazepin-9-yl)ethynyl)benzonitrile] showed an IC50 of 0.012 µM. Work on `O=C(N1C[C@@H]2C[C@H]1c1cncc(C#Cc3cccnc3)c1O2)C12CCC(F)(CC1)C2` [Compound 2-101, (4-fluorobicyclo[2.2.1]heptan-1-yl)((2S,5S)-9-(pyridin-3-ylethynyl)-2,3-dihydro-2,5-methanopyrido[3,4-f][1,4]oxazepin-4(5H)-yl)methanone] yielded an IC50 of 0.012 µM. Work on `O=C(N1C[C@@H]2C[C@H]1c1cncc(C#Cc3cncnc3)c1O2)C12CCC(F)(CC1)C2` [Compound 2-102, (4-fluorobicyclo[2.2.1]heptan-1-yl)((2S,5S)-9-(pyrimidin-5-ylethynyl)-2,3-dihydro-2,5-methanopyrido[3,4-f][1,4]oxazepin-4(5H)-yl)methanone] yielded an IC50 of 0.013 µM. `Cc1ccc(C#Cc2cncc3c2O[C@H]2C[C@@H]3N(C(=O)C34CCC(F)(CC3)C4)C2)cc1` [Compound 2-103, (4-fluorobicyclo[2.2.1]heptan-1-yl)((2S,5S)-9-(p-tolylethynyl)-2,3-dihydro-2,5-methanopyrido[3,4-f][1,4]oxazepin-4(5H)-yl)methanone] gave an IC50 of 0.021 µM. In the case of `Cc1cccc(C#Cc2cncc3c2O[C@H]2C[C@@H]3N(C(=O)C34CCC(F)(CC3)C4)C2)c1` [Compound 2-104, (4-fluorobicyclo[2.2.1]heptan-1-yl)((2S,5S)-9-(m-tolylethynyl)-2,3-dihydro-2,5-methanopyrido[3,4-f][1,4]oxazepin-4(5H)-yl)methanone], the IC50 is reported as 0.023 µM. In the case of `N#CCc1ccc(C#Cc2cncc3c2O[C@H]2C[C@@H]3N(C(=O)C34CCC(F)(CC3)C4)C2)cc1` [Compound 2-105], the IC50 is reported as 0.018 µM. `CC(C)C#Cc1cncc2c1O[C@H]1C[C@@H]2N(C(=O)C(C)(C)C(F)F)C1` [Compound 2-106, 3,3-Difluoro-2,2-dimethyl-1-((2S,5S)-9-(3-methylbut-1-yn-1-yl)-2,3-dihydro-2,5-methanopyrido[3,4-f][1,4]oxazepin-4(5H)-yl)propan-1-one] was tested, and the IC50 was 0.197 µM. Work on `CC(C)(C(=O)N1C[C@@H]2C[C@H]1c1cncc(C#CCC3CCOCC3)c1O2)C(F)F` [Compound 2-107, 3,3-difluoro-2,2-dimethyl-1-((2S,5S)-9-(3-(tetrahydro-2H-pyran-4-yl)prop-1-yn-1-yl)-2,3-dihydro-2,5-methanopyrido[3,4-f][1,4]oxazepin-4(5H)-yl)propan-1-one] yielded an IC50 of 0.15 µM. `CC(C)(C)CCC#Cc1cncc2c1O[C@H]1C[C@@H]2N(C(=O)C(C)(C)C(F)F)C1` [Compound 2-108, 1-((2S,5S)-9-(5,5-dimethylhex-1-yn-1-yl)-2,3-dihydro-2,5-methanopyrido[3,4-f][1,4]oxazepin-4(5H)-yl)-3,3-difluoro-2,2-dimethylpropan-1-one] was tested, and the IC50 was 0.163 µM. With `CC(C)(C(=O)N1C[C@@H]2C[C@H]1c1cncc(C#CCC3CCCCC3)c1O2)C(F)F` [Compound 2-109, 1-((2S,5S)-9-(3-cyclohexylprop-1-yn-1-yl)-2,3-dihydro-2,5-methanopyrido[3,4-f][1,4]oxazepin-4(5H)-yl)-3,3-difluoro-2,2-dimethylpropan-1-one] the IC50 was 0.184 µM. `CC(C)(C(=O)N1C[C@@H]2C[C@H]1c1cncc(C#CCCc3ccccc3)c1O2)C(F)F` [Compound 2-110, 3,3-difluoro-2,2-dimethyl-1-((2S,5S)-9-(4-phenylbut-1-yn-1-yl)-2,3-dihydro-2,5-methanopyrido[3,4-f][1,4]oxazepin-4(5H)-yl)propan-1-one] showed an IC50 of 0.197 µM. Molecule `CC(C)(C(=O)N1C[C@@H]2C[C@H]1c1cncc(C#CCCC(F)(F)F)c1O2)C(F)F` [Compound 2-111, 3,3-difluoro-2,2-dimethyl-1-((2S,5S)-9-(5,5,5-trifluoropent-1-yn-1-yl)-2,3-dihydro-2,5-methanopyrido[3,4-f][1,4]oxazepin-4(5H)-yl)propan-1-one] has an IC50 of 0.266 µM. `CC[C@H](C)CC#Cc1cncc2c1O[C@H]1C[C@@H]2N(C(=O)C(C)(C)C(F)F)C1` [Compound 2-112, 3,3-difluoro-2,2-dimethyl-1-((2S,5S)-9-((S)-4-methylhex-1-yn-1-yl)-2,3-dihydro-2,5-methanopyrido[3,4-f][1,4]oxazepin-4(5H)-yl)propan-1-one] was tested, and the IC50 was 0.083 µM. With `CC(C)(C(=O)N1C[C@@H]2C[C@H]1c1cncc(C#CCF)c1O2)C(F)F` [Compound 2-113, 3,3-difluoro-1-((2S,5S)-9-(3-fluoroprop-1-yn-1-yl)-2,3-dihydro-2,5-methanopyrido[3,4-f][1,4]oxazepin-4(5H)-yl)-2,2-dimethylpropan-1-one] the IC50 was 0.116 µM. For `CC(C)(C(=O)N1C[C@@H]2C[C@H]1c1cncc(C#CC34CC(C(F)(F)F)(C3)C4)c1O2)C(F)F` [Compound 2-114, 3,3-difluoro-2,2-dimethyl-1-((2S,5S)-9-((3-(trifluoromethyl)bicyclo [1.1.1]pentan-1-yl)ethynyl)-2,3-dihydro-2,5-methanopyrido[3,4-f][1,4]oxazepin-4(5H)-yl)propan-1-one], the IC50 was 1.53 µM. In the case of `O=C(N1C[C@@H]2C[C@H]1c1cncc(C#CC3CC3)c1O2)C12CCC(F)(CC1)C2` [Compound 2-115, ((2S,5S)-9-(Cyclopropylethynyl)-2,3-dihydro-2,5-methanopyrido[3,4-f][1,4]oxazepin-4(5H)-yl)(4-fluorobicyclo[2.2.1]heptan-1-yl)methanone], the IC50 is reported as 0.032 µM. `CC1(CC#Cc2cncc3c2O[C@H]2C[C@@H]3N(C(=O)C34CCC(F)(CC3)C4)C2)COC1` [Compound 2-116, (4-fluorobicyclo[2.2.1]heptan-1-yl)((2S,5S)-9-(3-(3-methyloxetan-3-yl)prop-1-yn-1-yl)-2,3-dihydro-2,5-methanopyrido[3,4-f][1,4]oxazepin-4(5H)-yl)methanone] showed an IC50 of 0.376 µM. `CCC#Cc1cncc2c1O[C@H]1C[C@@H]2N(C(=O)C23CCC(F)(CC2)C3)C1` [Compound 2-117] gave an IC50 of 0.043 µM. Work on `O=C(N1C[C@@H]2C[C@H]1c1cncc(C#CCC3CCOC3)c1O2)C12CCC(F)(CC1)C2` (stereo partly drawn) [Compound 2-118, (4-fluorobicyclo[2.2.1]heptan-1-yl)((2S,5S)-9-(3-(tetrahydrofuran-3-yl)prop-1-yn-1-yl)-2,3-dihydro-2,5-methanopyrido[3,4-f][1,4]oxazepin-4(5H)-yl)methanone] yielded an IC50 of 0.064 µM. Work on `O=C(N1C[C@@H]2C[C@H]1c1cncc(C#CC3COC3)c1O2)C12CCC(F)(CC1)C2` [Compound 2-119, (4-fluorobicyclo[2.2.1]heptan-1-yl)((2S,5S)-9-(oxetan-3-ylethynyl)-2,3-dihydro-2,5-methanopyrido[3,4-f][1,4]oxazepin-4(5H)-yl)methanone] yielded an IC50 of 0.057 µM. For `O=C(N1C[C@@H]2C[C@H]1c1cncc(C#CCC3(F)COC3)c1O2)C12CCC(F)(CC1)C2` [Compound 2-120, (4-fluorobicyclo[2.2.1]heptan-1-yl)((2S,5S)-9-(3-(3-fluorooxetan-3-yl)prop-1-yn-1-yl)-2,3-dihydro-2,5-methanopyrido[3,4-f][1,4]oxazepin-4(5H)-yl)methanone], the IC50 was 0.095 µM.
